# Target: C5a receptor (Homo sapiens (Human), UniProt P21730)
# Assay: Calcium mobilization assay (C5a-induced, U937 cells)
# Assay type: cell-based
# Details: inhibition of C5a-induced calcium mobilization
# Method: U937 cells (ATCC® CRL-1593.2) were cultivated in RPMI1640 medium supplemented with 10% fetal bovine serum in a standard cell culture incubator. The day before conducting the assay, Dibutyryl-cAMP (0.5 mM working concentration) was added to cell cultures. Next day, cells were spun and resuspended in RPMI 1640 to a concentration of 40,000 cells per 50 μl. 40,000 cells were plated in one well in a 96 well poly-D-lysine coated plate for two hours to allow cells to adhere. After cell adherence, cytoplasmic calcium^++ indicator (FLIPR Calcium 6 Assay Kit, Molecular Devices) was added to each well and incubated for 75 minutes at 37° C. Test compounds were diluted using a robotic liquid handler. The tips of the robotic liquid handler were changed after each mixing step. Test compounds were added into cell cultures at various concentrations (0.01 nM to 100 μM) for 15 minutes at 37° C. The cell culture plates were then incubated at room temperature for 30 minutes before being placed into Flexstation-3 plate reader (Molecular Devices). The Flexstation-3 was programmed to add recombinant C5a protein at various concentrations (1 nM to 10 nM) to cell culture plates and to monitor the change of fluorescence intensity, which correlates with cytoplasmic calcium concentration. The assay was also performed with the presence of human or animal blood components, such as human or bovine plasma or serum.
# The half maximal inhibitory concentrations, i.e. IC50, were determined in biological assays, such as calcium mobilization assay. Using the calcium mobilization assay the following IC50 values were determined by the best dose-response curve fitting method. The curves were plotted using percentage inhibition of C5a-induced calcium mobilization versus various concentrations of compounds.
# Chain of C5a receptor (P21730 whole entry): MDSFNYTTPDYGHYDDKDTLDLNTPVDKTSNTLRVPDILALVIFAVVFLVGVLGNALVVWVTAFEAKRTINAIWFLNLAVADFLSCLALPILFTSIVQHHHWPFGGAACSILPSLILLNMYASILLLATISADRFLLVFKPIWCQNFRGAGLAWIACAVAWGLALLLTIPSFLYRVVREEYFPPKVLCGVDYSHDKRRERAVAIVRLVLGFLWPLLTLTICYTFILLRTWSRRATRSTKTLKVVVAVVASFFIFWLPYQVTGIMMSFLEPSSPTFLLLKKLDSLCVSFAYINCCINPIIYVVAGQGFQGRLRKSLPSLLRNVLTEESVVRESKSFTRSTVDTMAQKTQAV
row,SMILES,IC50
1,"Cc1ccc(NC(=O)[C@H]2C[C@@H](C(F)(F)F)CN(C(=O)c3c(F)cccc3F)[C@H]2c2ccc(NC3CCCC3)cc2)cc1Cl [INF071, (2R,3S,5R)—N-(3-chloro-4-methylphenyl)-2-(4-(cyclopentylamino)phenyl)-1-(2,6-difluorobenzoyl)-5-(trifluoromethyl)piperidine-3-carboxamide]",< 10 nM
2,"COc1ccc2c(c1)C[C@H](C(=O)Nc1ccc(C)c(C(F)(F)F)c1)[C@H](c1ccc(NC3CCCC3)cc1)N2C(=O)c1c(C)cccc1F [INF024, (2R,3S)-2-(4-(cyclopentylamino)phenyl)-1-(2-fluoro-6-methylbenzoyl)-6-methoxy-N-(4-methyl-3-(trifluoromethyl)phenyl)-1,2,3,4-tetrahydroquinoline-3-carboxamide]",< 10 nM
3,"[2H]C1(Nc2ccc([C@H]3[C@@H](C(=O)Nc4ccc(C)c(C(F)(F)F)c4)C[C@@H](C(F)(F)F)CN3C(=O)c3c(F)cccc3F)cc2)CCCC1 [INF067, (2R,3S,5R)-2-(4-((cyclopentyl-1-d)amino)phenyl)-1-(2,6-difluorobenzoyl)-N-(4-methyl-3-(trifluoromethyl)phenyl)-5-(trifluoromethyl)piperidine-3-carboxamide]",< 10 nM
4,"Cc1cccc(F)c1C(=O)N1c2ccc(F)cc2C[C@H](C(=O)Nc2ccc(CO)c(C(F)(F)F)c2)[C@@H]1c1ccc(NC2CCCC2)cc1 [INF039, (2R,3S)-2-(4-(cyclopentylamino)phenyl)-6-fluoro-1-(2-fluoro-6-methylbenzoyl)-N-(4-(hydroxymethyl)-3-(trifluoromethyl)phenyl)-1,2,3,4-tetrahydroquinoline-3-carboxamide]",< 10 nM
5,"Cc1ccc2c(c1)C[C@H](C(=O)Nc1ccc(C)c(C(F)(F)F)c1)[C@H](c1ccc(NC3CCCC3)cc1)N2C(=O)c1c(C)cccc1F [INF023, (2R,3S)-2-(4-(cyclopentylamino)phenyl)-1-(2-fluoro-6-methylbenzoyl)-6-methyl-N-(4-methyl-3-(trifluoromethyl)phenyl)-1,2,3,4-tetrahydroquinoline-3-carboxamide]",< 10 nM
6,"Cc1cccc(F)c1C(=O)N1c2cccc(F)c2C[C@H](C(=O)Nc2ccc(CO)c(C(F)(F)F)c2)[C@@H]1c1ccc(NC2CCCC2)cc1 [INF045, (2R,3S)-2-(4-(cyclopentylamino)phenyl)-5-fluoro-1-(2-fluoro-6-methylbenzoyl)-N-(4-(hydroxymethyl)-3-(trifluoromethyl)phenyl)-1,2,3,4-tetrahydroquinoline-3-carboxamide]",< 10 nM
7,"Cc1ccc(NC(=O)[C@H]2Cc3ccccc3N(C(=O)c3c(C)cccc3F)[C@H]2c2ccc(NC3CCCC3)cc2)cc1C(F)(F)F [INF004, (2R,3S)-2-(4-(cyclopentylamino)phenyl)-1-(2-fluoro-6-methylbenzoyl)-N-(4-methyl-3-(trifluoromethyl)phenyl)-1,2,3,4-tetrahydroquinoline-3-carboxamide]",< 10 nM
8,"O=C(Nc1ccc(O)c(C(F)(F)F)c1)[C@H]1C[C@@H](C(F)(F)F)CN(C(=O)c2c(F)cccc2F)[C@H]1c1ccc(NC2CCCC2)cc1 [INF068, (2R,3S,5R)-2-(4-(cyclopentylamino)phenyl)-1-(2,6-difluorobenzoyl)-N-(4-hydroxy-3-(trifluoromethyl)phenyl)-5-(trifluoromethyl)piperidine-3-carboxamide]",< 10 nM
9,"Cc1ccc(NC(=O)[C@H]2C[C@@H](C(F)(F)F)CN(C(=O)c3c(F)cccc3F)[C@H]2c2ccc(NC3CCCC3)cc2)cc1C(F)(F)F [INF052, (2R,3S,5R)-2-(4-(cyclopentylamino)phenyl)-1-(2,6-difluorobenzoyl)-N-(4-methyl-3-(trifluoromethyl)phenyl)-5-(trifluoromethyl)piperidine-3-carboxamide]",< 10 nM
10,"Cc1ccc(NC(=O)[C@H]2Cc3cc(F)ccc3N(C(=O)c3c(C)cccc3F)[C@H]2c2ccc(NC3CCCC3)cc2)cc1C(F)(F)F [INF022, (2R,3S)-2-(4-(cyclopentylamino)phenyl)-6-fluoro-1-(2-fluoro-6-methylbenzoyl)-N-(4-methyl-3-(trifluoromethyl)phenyl)-1,2,3,4-tetrahydroquinoline-3-carboxamide]",< 10 nM
11,"Cc1cccc(F)c1C(=O)N1c2ccccc2C[C@H](C(=O)Nc2ccc(O)c(C(F)(F)F)c2)[C@@H]1c1ccc(NC2CCCC2)cc1 [INF033, (2R,3S)-2-(4-(cyclopentylamino)phenyl)-1-(2-fluoro-6-methylbenzoyl)-N-(4-hydroxy-3-(trifluoromethyl)phenyl)-1,2,3,4-tetrahydroquinoline-3-carboxamide]",< 10 nM
12,"Cc1cccc(F)c1C(=O)N1c2ccccc2C[C@H](C(=O)Nc2ccc(CO)c(C(F)(F)F)c2)[C@@H]1c1ccc(NC2CCCC2)cc1 [INF015, (2R,3S)-2-(4-(cyclopentylamino)phenyl)-1-(2-fluoro-6-methylbenzoyl)-N-(4-(hydroxymethyl)-3-(trifluoromethyl)phenyl)-1,2,3,4-tetrahydroquinoline-3-carboxamide]",< 10 nM
